The test system of one assay is Agouti gene Avy. Nature of the assay: Agouti-yellow coat colour of offspring of supplemented VY dams (DNA methylation marking). The class given is in vivo, mouse. The following applies: dams' diet fortified during gestation, human-equivalent dose, n=10; standard diet 66%. The source says: Mice embryos carrying the transgenic Agouti gene Avy will develop during gestation an Agouti-yellow color hair instead of the normal brown color proportionally to the lack of cytosine methylation at the relevant gene promoter. Mothers with a good DNA methylation function during early embryogenesis will generate offspring exerting less of the yellow color, thus the proportion of yellow color in the offspring can be used as a measure of efficiency of DNA methylation marking. Newborn mice are classified as Y0 to Y5 according to the amount of yellow phenotype, from Y0 for those without yellow hair up to Y5 in those fully colored in yellow. Dams of the inbred agouti mouse strain VY underwent diversified feeding during their gestation: their standard diet (n=10), or; their standard diet fortified with folic acid in amounts equivalent to a human dose of 400 μg daily (n=10), or; their standard diet fortified with the substances in amounts equivalent to a human dose of 1 tablet per day of the formulation of EXAMPLE 1 (n=10). The offspring was classified Y0 to Y5 according to the amount of yellow colour. In the standard diet group the rate of offspring abundant Agouti yellow color (Y3 to Y5) was 66%, which decreased to 45% in the offspring from folic acid supplementation and to 31% in the offspring supplemented by the composition according to the invention.

Assay [1] has as its system patients with type 2 diabetes mellitus. Nature of the assay: Adjuvant treatment to metformin in newly diagnosed type 2 diabetes mellitus. The class given is in vivo, human. The source says:
Thirty male patients newly diagnosed as affected by type 2 diabetes mellitus and starting a treatment with metformin, 1-2 gr daily, where randomly assigned to a 3-month adjuvant treatment with the composition formulated according to EXAMPLE 1, 1 tablet per day, or no treatment.

The test system of assay [2] is plasma total antioxidant capacity (TAC). As to the kind of experiment: Plasma total antioxidant capacity (TAC) in regular smokers, cross-over. The assay is classed as in vivo, human. The following applies: ten male smokers. On the procedure: Ten male subjects regularly smoking 15 cigarettes per day or more assumed the composition formulated according to EXAMPLE 1, 1 tablet per day during 1 week or 1000 mg daily of vitamin C by the oral route for 1 week according to a cross-over design with a 1 month wash-out interval between the treatments. The plasma total antioxidant capacity (TAC) was measured by means of a colorimetric assay kit before and after each of the treatment periods in all subjects. The average TAC values expressed as μmol trolox equivalents increased from 472±36 to 522±32 (increase=11%) following one week supplementation with the powerful direct antioxidant vitamin C and from 468±31 to 565±36 (increase=21%) following one week supplementation with the composition according to the invention. Thus, the TAC increase provided by the aforementioned composition was of the same magnitude, if not higher, than that induced by full doses of a potent direct antioxidant.

The test system is the same in assay [3]. As to the kind of experiment: Plasma total antioxidant capacity (TAC) in healthy young males, cross-over. The class given is in vivo, human. The protocol: Ten young male subjects aged 18-25, following a healthy diet and virtually free from diseases assumed the composition formulated according to EXAMPLE 1, 1 tablet per day, for 1 week or 1000 mg daily of vitamin C by the oral route for 1 week according to a cross-over design with a 1 month wash-out interval between the treatments. The plasma total antioxidant capacity (TAC) was measured by means of a colorimetric assay kit before and after each of the treatment periods in all subjects. The average TAC values expressed as μmol trolox equivalents increased from 572±33 to 646±20 (increase=13%) following one week supplementation with the powerful direct antioxidant vitamin C whereas it remained stable (from 570±31 to 578±26, increase=1%) following one week supplementation with the composition according to the invention.

Where [4] appears, read: all patients on metformin 1-2 gr daily, 3 months.

Consider `Nc1nc2ncc(CNc3ccc(C(=O)N[C@@H](CCC(=O)O)C(=O)O)cc3)nc2c(=O)[nH]1` [folic acid], for which the “rate of offspring with abundant Agouti yellow color (Y3 to Y5)” value with Agouti gene Avy amounted to 45%.

For the compound `CN(C)C(=N)N=C(N)N` [metformin], in assay [1] (setting [4]), the “plasma homocysteine at the end of treatment” value worked out at 14.4 ± 2.1 µmol/L and the “serum HbA1C percentage at end” value is listed as 9.2%. In addition, the “serum HbA1C percentage at baseline” value in assay [1] (all patients on metformin 1-2 gr daily, baseline) stood at 10.4%. Also, in assay [1] (male type 2 diabetes patients starting metformin 1-2 gr daily, baseline), the “plasma homocysteine at baseline” value is 12.04 ± 1.6 µmol/L.

On to `O=C1O[C@H]([C@@H](O)CO)C(O)=C1O` [vitamin C], for which the “average plasma TAC before treatment” value in assay [2] (15 cigarettes per day or more, before one week supplementation) is on record as 472±36 μmol trolox equivalents; in assay [3] (ten healthy young males aged 18-25, before one week supplementation), 572±33 μmol trolox equivalents. For the same compound, the “average plasma TAC after treatment” value was found to be 522±32 μmol trolox equivalents in assay [2] (after one week supplementation) and 646±20 μmol trolox equivalents in assay [3] (ten healthy young males aged 18-25, after one week supplementation). Besides, the TAC increase is 11% in assay [2] (one week supplementation) and 13% in assay [3] (ten healthy young males, one week supplementation).

Values taken from patent US10966949B2, “Dietary supplementation to achieve oxy-redox homeostasis and epigenetic stability” (PARTHENOGEN SAGL, priority 2015, dated 2021).
